According to ChEMBL document CHEMBL3885861, “Open TG-GATES”:

Organism: Rattus norvegicus
Assay: Open TG-GATES - Regimen: Daily Repeat
Type: toxicity, organism-based, Sprague-Dawley
Parameters: regimen Daily Repeat, gender Male, age 6 weeks
Conditions: in vivo, po, 1000 mg/kg, route gavage, dose level High; for APTT / Bas / Eos / Fbg / Hb / Ht / Lym / MCH / MCHC / MCV / Mono / Neu / PT / Plat / RBC / Ret / WBC: tissue Blood; for KIDNEY_L / KIDNEY_R / KIDNEY_TOTAL: tissue Kidney; for LIVER: tissue Liver; for A/G / ALP / ALT / AST / BUN / CRE / Ca / Cl / DBIL / GLC / IP / K / LDH / Na / PL / RALB / TBIL / TC / TG / TP / gamma-GTP: tissue Plasma

## CN(C)[C@@H]1C(O)=C(C(N)=O)C(=O)[C@@]2(O)C(O)=C3C(=O)c4c(O)cccc4[C@@](C)(O)[C@H]3C[C@@H]12 [TETRACYCLINE]
72 h, time 3 day
  TERMINAL_BW: 196.1 g
  APTT: 16.3 s
  Bas: 0%
  Eos: 1.2%
  Fbg: 220.4 mg/dL
  Hb: 13.2 g/dL
  Ht: 39.6%
  Lym: 87.6%
  MCH: 21.2 pg
  MCHC: 33.2%
  MCV: 63.8 fL
  Mono: 4.6%
  Neu: 6.6%
  PT: 12.3 s
  Plat: 111.2 x10_4/uL
  RBC: 621.8 x10_4/ul
  Ret: 5.2%
  WBC: 98.6 x10_2/uL
  KIDNEY_L: 0.9 g
  KIDNEY_R: 0.9 g
  KIDNEY_TOTAL: 1.8 g
  LIVER: 8.4 g
  A/G: 2.2
  ALP: 1151 IU/L
  ALT: 37.8 IU/L
  AST: 72.2 IU/L
  BUN: 17.2 mg/dL
  CRE: 0.5 mg/dL
  Ca: 10.8 mg/dL
  Cl: 105.8 meq/L
  DBIL: 0.006 mg/dL
  GLC: 181 mg/dL
  IP: 9 mg/dL
  K: 4.6 meq/L
  LDH: 144.4 IU/L
  Na: 140.8 meq/L
  PL: 143.2 mg/dL
  RALB: 3.8 g/dL
  TBIL: 0.3 mg/dL
  TC: 85.8 mg/dL
  TG: 40.4 mg/dL
  TP: 5.5 g/dL
  gamma-GTP: 1.8 IU/L
[…], time 7 day
  TERMINAL_BW: 225.1 g
  APTT: 16 s
  Bas: 0%
  Eos: 1.2%
  Fbg: 220.8 mg/dL
  Hb: 13.3 g/dL
  Ht: 39.5%
  Lym: 86.6%
  MCH: 20.8 pg
  MCHC: 33.6%
  MCV: 61.7 fL
  Mono: 5.8%
  Neu: 6.8%
  PT: 12.3 s
  Plat: 115 x10_4/uL
  RBC: 639.8 x10_4/ul
  Ret: 6.4%
  WBC: 124.1 x10_2/uL
  KIDNEY_L: 1 g
  KIDNEY_R: 1 g
  KIDNEY_TOTAL: 1.9 g
  LIVER: 9.5 g
  A/G: 2.1
  ALP: 1114.8 IU/L
  ALT: 36.6 IU/L
  AST: 72 IU/L
  BUN: 17 mg/dL
  CRE: 0.5 mg/dL
  Ca: 11.1 mg/dL
  Cl: 106.2 meq/L
  DBIL: 0.008 mg/dL
  GLC: 179.6 mg/dL
  IP: 9 mg/dL
  K: 5.2 meq/L
  LDH: 116.4 IU/L
  Na: 140.4 meq/L
  PL: 139 mg/dL
  RALB: 3.8 g/dL
  TBIL: 0.2 mg/dL
  TC: 74 mg/dL
  TG: 56.2 mg/dL
  TP: 5.6 g/dL
  gamma-GTP: 1.2 IU/L
[…], time 14 day
  TERMINAL_BW: 289.3 g
  APTT: 16.2 s
  Bas: 0%
  Eos: 1%
  Fbg: 225.4 mg/dL
  Hb: 13.5 g/dL
  Ht: 40.9%
  Lym: 91.2%
  MCH: 20.6 pg
  MCHC: 33%
  MCV: 62.5 fL
  Mono: 2.6%
  Neu: 5.4%
  PT: 11.9 s
  Plat: 109.6 x10_4/uL
  RBC: 656 x10_4/ul
  Ret: 6.7%
  WBC: 146 x10_2/uL
  KIDNEY_L: 1.1 g
  KIDNEY_R: 1.2 g
  KIDNEY_TOTAL: 2.3 g
  LIVER: 11.9 g
  A/G: 2
  ALP: 1024 IU/L
  ALT: 33.8 IU/L
  AST: 64.8 IU/L
  BUN: 20.2 mg/dL
  CRE: 0.6 mg/dL
  Ca: 11.3 mg/dL
  Cl: 104 meq/L
  DBIL: 0.074 mg/dL
  GLC: 176 mg/dL
  IP: 9.2 mg/dL
  K: 4.9 meq/L
  LDH: 156.6 IU/L
  Na: 143 meq/L
  PL: 168.8 mg/dL
  RALB: 3.9 g/dL
  TBIL: 0.3 mg/dL
  TC: 89.2 mg/dL
  TG: 84.2 mg/dL
  TP: 5.9 g/dL
  gamma-GTP: 2 IU/L
[…], time 28 day
  TERMINAL_BW: 356 g
  APTT: 16.6 s
  Bas: 0%
  Eos: 1%
  Fbg: 233.6 mg/dL
  Hb: 14.4 g/dL
  Ht: 43.2%
  Lym: 86.8%
  MCH: 19 pg
  MCHC: 33.4%
  MCV: 56.9 fL
  Mono: 3.6%
  Neu: 8.6%
  PT: 11.8 s
  Plat: 95 x10_4/uL
  RBC: 761.4 x10_4/ul
  Ret: 2.9%
  WBC: 154.2 x10_2/uL
  KIDNEY_L: 1.3 g
  KIDNEY_R: 1.2 g
  KIDNEY_TOTAL: 2.5 g
  LIVER: 12.2 g
  A/G: 1.8
  ALP: 773.6 IU/L
  ALT: 35.2 IU/L
  AST: 71.8 IU/L
  BUN: 19.2 mg/dL
  CRE: 0.6 mg/dL
  Ca: 11.1 mg/dL
  Cl: 106 meq/L
  DBIL: 0.024 mg/dL
  GLC: 168.8 mg/dL
  IP: 7.6 mg/dL
  K: 4.4 meq/L
  LDH: 143.6 IU/L
  Na: 142 meq/L
  PL: 140.4 mg/dL
  RALB: 3.6 g/dL
  TBIL: 0.3 mg/dL
  TC: 77.6 mg/dL
  TG: 73.8 mg/dL
  TP: 5.7 g/dL
  gamma-GTP: 1.6 IU/L
